Measurements taken from ChEMBL document CHEMBL1149912, “Chemical fragments as foundations for understanding target space and activity prediction” (J Med Chem, 2008).
Blank lines part the entries; values can stand above or below the compound they belong to.

Columns and labels:
[1] = target: Muscarinic acetylcholine receptor M3 (Homo sapiens) (UniProt P20309); test: Inhibition of CHRM3
[2] = target: Stromelysin-1 (Homo sapiens) (UniProt P08254); test: Inhibition of MMP3
[3] = target: T1, Prostaglandin D2 receptor 2 (Homo sapiens) (UniProt Q9Y5Y4); test: Inhibition of GPR44
T1 sequence (whole entry): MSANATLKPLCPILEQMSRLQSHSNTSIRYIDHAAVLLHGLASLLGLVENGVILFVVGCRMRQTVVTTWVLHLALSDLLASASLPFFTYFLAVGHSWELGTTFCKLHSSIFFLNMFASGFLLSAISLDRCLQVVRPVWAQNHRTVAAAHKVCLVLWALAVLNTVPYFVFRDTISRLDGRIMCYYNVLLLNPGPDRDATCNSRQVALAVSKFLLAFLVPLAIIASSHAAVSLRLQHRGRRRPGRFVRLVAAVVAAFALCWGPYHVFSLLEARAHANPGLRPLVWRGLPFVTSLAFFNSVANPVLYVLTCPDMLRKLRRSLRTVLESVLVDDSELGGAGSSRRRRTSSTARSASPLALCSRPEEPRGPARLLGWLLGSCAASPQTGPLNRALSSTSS

[4] = target: Mitogen-activated protein kinase 14 (Homo sapiens) (UniProt Q16539); test: Inhibition of MAPK14
[5] = target: Prothrombin (Homo sapiens) (UniProt P00734); test: Inhibition of thrombin
[6] = target: Cathepsin B (Homo sapiens) (UniProt P07858); test: Inhibition of CTSB
[7] = target: Sodium-dependent dopamine transporter (Homo sapiens) (UniProt Q01959); test: Inhibition of SLC6A3
[8] = target: T2, Glucocorticoid receptor (Homo sapiens) (UniProt P04150); test: Inhibition of NR3C1
T2 sequence (whole entry): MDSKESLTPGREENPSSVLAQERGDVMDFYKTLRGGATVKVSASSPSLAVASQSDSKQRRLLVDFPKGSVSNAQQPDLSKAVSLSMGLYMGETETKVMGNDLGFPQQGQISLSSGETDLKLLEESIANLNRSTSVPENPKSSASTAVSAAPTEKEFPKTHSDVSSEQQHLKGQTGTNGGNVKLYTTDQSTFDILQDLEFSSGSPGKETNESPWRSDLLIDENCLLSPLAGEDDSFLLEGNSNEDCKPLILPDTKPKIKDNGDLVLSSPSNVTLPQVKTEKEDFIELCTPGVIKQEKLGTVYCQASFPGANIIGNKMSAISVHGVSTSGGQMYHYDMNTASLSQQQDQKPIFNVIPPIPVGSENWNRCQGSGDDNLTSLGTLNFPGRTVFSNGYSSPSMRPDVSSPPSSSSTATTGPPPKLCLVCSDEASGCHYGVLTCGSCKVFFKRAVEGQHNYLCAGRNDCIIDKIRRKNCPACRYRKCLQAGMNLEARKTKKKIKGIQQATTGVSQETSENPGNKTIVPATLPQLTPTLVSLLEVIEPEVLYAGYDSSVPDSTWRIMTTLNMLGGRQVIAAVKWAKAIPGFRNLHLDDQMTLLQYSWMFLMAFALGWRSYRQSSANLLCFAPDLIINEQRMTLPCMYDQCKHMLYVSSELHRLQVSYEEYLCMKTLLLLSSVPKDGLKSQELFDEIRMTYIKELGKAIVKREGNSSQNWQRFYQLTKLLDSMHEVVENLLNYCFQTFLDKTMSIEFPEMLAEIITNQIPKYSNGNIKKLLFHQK

[9] = target: Voltage-dependent N-type calcium channel subunit alpha-1B (Homo sapiens) (UniProt Q00975); test: Inhibition of CACNA1B
[10] = target: Leukotriene B4 receptor 1 (Homo sapiens) (UniProt Q15722); test: Inhibition of LTB4R
[11] = target: Neprilysin (Homo sapiens) (UniProt P08473); test: Inhibition of MME
[12] = target: T3, Cholecystokinin receptor type A (Homo sapiens) (UniProt P32238); test: Inhibition of CCKAR
T3 sequence (whole entry): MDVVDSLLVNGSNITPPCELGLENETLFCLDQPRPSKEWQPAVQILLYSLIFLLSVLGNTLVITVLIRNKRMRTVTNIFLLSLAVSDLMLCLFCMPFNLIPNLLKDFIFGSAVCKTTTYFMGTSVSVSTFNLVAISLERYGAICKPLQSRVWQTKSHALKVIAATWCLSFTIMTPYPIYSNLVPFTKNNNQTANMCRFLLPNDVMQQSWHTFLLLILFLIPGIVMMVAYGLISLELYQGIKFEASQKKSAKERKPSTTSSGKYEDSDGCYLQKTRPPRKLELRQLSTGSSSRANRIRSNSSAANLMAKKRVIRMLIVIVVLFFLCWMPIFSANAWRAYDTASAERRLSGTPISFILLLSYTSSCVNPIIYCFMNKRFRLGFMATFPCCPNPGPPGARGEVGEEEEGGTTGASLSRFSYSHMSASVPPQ

[13] = target: Kappa-type opioid receptor (Homo sapiens) (UniProt P41145); test: Inhibition of OPRK1
[14] = target: Metabotropic glutamate receptor 2 (Homo sapiens) (UniProt Q14416); test: Inhibition of GRM2
Renin (Homo sapiens) = target: T4, Renin (Homo sapiens) (UniProt P00797); test: Inhibition of REN
T4 sequence (whole entry): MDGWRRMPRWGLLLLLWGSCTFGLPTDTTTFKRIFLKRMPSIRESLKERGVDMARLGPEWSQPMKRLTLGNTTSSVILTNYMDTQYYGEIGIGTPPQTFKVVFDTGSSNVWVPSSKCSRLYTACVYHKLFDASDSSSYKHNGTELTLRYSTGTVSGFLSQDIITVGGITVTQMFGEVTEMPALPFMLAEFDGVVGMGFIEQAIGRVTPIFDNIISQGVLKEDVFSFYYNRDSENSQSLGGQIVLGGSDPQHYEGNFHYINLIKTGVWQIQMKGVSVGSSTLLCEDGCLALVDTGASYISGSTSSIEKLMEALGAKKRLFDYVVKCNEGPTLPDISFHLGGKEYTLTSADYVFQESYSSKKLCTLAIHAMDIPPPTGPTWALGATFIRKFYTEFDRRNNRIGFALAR

[15] = target: Aldo-keto reductase family 1 member B1 (Homo sapiens) (UniProt P15121); test: Inhibition of AKR1B1
[16] = test system: NMDA receptor subunit 1, GRIN1; test: Inhibition of GRIN1

Sequence of Leukotriene B4 receptor 1 (Homo sapiens) (Q15722 whole entry): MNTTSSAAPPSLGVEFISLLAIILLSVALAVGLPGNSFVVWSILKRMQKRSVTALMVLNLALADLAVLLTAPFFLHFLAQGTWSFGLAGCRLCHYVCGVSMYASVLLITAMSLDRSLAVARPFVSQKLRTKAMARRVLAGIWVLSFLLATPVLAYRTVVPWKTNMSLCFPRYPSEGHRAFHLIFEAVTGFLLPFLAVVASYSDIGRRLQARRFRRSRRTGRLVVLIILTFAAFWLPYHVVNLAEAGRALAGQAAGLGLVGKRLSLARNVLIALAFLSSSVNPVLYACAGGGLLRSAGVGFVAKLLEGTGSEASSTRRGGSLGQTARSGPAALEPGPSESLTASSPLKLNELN
Sequence of Neprilysin (Homo sapiens) (P08473 whole entry): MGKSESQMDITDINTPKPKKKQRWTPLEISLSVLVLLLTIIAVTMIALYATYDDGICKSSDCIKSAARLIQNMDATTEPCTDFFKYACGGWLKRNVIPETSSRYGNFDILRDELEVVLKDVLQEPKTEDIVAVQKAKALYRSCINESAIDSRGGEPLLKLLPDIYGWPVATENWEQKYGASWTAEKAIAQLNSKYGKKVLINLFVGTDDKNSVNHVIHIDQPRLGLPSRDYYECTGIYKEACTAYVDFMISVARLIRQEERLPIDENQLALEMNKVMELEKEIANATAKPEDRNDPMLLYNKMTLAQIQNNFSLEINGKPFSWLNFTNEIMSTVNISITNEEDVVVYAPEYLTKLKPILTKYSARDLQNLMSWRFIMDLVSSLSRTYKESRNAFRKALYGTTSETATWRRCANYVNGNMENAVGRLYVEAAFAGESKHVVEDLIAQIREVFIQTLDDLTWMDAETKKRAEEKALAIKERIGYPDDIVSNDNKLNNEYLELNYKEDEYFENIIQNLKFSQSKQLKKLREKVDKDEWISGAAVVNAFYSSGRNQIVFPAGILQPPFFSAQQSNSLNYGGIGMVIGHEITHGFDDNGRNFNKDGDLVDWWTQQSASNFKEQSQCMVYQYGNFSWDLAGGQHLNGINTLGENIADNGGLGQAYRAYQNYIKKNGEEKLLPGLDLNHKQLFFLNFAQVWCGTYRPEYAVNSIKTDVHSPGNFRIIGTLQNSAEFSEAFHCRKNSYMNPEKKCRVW
Sequence of Stromelysin-1 (Homo sapiens) (P08254 100-477 limits assumed): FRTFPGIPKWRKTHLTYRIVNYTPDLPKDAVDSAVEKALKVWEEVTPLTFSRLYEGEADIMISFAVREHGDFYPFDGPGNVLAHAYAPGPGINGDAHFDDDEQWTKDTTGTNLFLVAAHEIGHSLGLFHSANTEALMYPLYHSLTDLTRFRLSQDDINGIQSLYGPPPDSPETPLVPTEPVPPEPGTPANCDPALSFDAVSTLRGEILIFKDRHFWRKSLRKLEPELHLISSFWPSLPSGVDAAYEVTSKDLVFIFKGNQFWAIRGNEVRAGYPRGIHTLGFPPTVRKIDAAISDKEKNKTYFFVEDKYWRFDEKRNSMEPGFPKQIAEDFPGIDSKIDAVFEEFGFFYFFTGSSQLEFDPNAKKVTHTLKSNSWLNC
Sequence of Voltage-dependent N-type calcium channel subunit alpha-1B (Homo sapiens) (Q00975 whole entry, looked up): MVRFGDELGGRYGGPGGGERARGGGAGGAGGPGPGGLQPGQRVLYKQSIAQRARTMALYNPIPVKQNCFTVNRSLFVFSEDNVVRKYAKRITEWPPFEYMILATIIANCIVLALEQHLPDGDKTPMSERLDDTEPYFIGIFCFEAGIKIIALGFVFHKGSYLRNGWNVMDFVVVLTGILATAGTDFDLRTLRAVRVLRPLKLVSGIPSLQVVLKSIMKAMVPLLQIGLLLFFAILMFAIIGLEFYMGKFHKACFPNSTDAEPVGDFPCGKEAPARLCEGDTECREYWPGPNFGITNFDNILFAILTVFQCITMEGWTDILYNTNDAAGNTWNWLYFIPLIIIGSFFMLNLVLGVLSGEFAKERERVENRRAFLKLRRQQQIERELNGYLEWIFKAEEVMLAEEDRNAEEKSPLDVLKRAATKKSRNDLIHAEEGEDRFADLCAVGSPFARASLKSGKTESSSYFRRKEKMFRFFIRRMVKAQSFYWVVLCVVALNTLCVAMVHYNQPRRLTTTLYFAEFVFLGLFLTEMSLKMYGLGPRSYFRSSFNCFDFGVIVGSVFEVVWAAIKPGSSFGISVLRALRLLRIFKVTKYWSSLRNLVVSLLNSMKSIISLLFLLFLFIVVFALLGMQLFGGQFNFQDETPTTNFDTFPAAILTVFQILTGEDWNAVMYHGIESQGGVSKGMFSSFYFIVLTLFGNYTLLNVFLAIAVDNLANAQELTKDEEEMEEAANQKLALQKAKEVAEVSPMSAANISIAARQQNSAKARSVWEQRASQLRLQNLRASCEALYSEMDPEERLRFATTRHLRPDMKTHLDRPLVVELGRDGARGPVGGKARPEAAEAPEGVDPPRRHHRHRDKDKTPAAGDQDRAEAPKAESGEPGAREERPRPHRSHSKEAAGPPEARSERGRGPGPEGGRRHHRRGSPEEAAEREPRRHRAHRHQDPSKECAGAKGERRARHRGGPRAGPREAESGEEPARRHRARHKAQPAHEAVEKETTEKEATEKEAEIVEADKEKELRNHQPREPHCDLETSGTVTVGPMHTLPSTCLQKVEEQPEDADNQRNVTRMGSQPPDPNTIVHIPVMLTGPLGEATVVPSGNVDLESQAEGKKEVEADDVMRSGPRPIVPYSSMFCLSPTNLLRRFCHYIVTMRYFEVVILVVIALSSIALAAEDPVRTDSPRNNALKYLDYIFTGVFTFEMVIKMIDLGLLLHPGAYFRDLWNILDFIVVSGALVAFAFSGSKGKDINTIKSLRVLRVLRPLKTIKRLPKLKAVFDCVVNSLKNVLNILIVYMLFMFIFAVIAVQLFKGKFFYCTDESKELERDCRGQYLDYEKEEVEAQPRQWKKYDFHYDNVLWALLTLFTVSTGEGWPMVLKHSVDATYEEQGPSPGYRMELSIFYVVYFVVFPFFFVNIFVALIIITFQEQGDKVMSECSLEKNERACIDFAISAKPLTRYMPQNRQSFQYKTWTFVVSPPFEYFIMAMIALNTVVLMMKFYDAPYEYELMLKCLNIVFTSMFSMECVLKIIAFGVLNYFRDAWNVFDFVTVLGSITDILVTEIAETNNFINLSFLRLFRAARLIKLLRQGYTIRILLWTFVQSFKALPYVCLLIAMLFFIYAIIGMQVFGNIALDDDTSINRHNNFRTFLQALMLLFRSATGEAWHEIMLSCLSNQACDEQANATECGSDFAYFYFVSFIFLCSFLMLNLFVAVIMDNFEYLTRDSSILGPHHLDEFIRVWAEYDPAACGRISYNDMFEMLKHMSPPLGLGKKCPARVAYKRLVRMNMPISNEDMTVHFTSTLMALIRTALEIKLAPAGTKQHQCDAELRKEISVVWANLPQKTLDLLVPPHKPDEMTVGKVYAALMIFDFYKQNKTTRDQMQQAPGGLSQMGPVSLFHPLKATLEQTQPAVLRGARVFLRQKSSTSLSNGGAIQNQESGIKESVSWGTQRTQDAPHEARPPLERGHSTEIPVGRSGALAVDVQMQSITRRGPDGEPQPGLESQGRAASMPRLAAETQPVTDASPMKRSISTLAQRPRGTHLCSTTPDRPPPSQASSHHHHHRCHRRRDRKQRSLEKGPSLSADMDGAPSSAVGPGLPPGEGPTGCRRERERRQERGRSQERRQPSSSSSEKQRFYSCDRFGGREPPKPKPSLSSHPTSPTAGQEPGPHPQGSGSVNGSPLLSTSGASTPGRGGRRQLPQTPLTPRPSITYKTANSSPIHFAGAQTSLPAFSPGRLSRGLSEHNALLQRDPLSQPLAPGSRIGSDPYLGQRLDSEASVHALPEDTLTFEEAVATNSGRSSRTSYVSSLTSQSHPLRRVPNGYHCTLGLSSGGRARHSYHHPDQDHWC
Sequence of Muscarinic acetylcholine receptor M3 (Homo sapiens) (P20309 whole entry, looked up): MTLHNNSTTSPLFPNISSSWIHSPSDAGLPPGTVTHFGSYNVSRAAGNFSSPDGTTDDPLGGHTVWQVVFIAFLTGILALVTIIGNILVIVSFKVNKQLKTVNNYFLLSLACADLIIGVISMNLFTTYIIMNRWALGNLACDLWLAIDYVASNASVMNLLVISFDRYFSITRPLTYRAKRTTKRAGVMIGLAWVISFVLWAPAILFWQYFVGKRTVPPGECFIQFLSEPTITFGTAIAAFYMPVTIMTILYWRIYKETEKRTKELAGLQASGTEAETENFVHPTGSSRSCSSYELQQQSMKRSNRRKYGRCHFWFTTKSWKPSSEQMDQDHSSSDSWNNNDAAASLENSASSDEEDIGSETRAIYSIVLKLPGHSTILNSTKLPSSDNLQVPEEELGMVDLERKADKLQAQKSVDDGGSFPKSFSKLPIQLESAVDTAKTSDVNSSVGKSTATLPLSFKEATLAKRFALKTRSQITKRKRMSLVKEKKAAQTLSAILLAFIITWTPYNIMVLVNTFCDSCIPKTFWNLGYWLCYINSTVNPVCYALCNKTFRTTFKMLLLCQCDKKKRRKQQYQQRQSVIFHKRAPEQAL
Sequence of Mitogen-activated protein kinase 14 (Homo sapiens) (Q16539 whole entry): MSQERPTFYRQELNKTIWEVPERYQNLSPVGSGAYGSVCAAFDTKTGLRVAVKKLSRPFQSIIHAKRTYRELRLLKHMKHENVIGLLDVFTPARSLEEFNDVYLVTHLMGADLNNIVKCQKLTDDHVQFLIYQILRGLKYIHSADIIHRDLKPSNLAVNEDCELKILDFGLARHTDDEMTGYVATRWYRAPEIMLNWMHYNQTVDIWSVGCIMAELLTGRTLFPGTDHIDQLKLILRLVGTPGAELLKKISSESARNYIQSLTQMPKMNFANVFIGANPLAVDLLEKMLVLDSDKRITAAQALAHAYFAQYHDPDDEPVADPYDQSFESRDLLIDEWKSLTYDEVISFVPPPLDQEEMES

SMILES: CC(C)=CCCN1CCC(NC(=O)[C@@](O)(c2ccccc2)[C@H]2CCC(NC(=O)OCc3ccccc3)C2)CC1 (some centres undefined)
- Activity [1]: 5.2 nM

SMILES: CCCC1(C(=O)Nc2cccc(F)c2)CCc2c(c3ccccc3n2CC(=O)O)C1 (centres undefined)
- Activity [3]: 22 nM

SMILES: Cc1cccc(C[C@@H](NC(=O)C(c2ccccc2)c2ccccc2)C(=O)N[C@@H](C#N)COCc2ccccc2)c1
- Activity [6]: 10.2 nM

SMILES: CN1CC[C@H](c2ccc(Cl)cc2)[C@H](CSCC(=O)NCCc2ccccc2)C1
- Activity [7]: 23 nM

SMILES: COc1ccc(NC(=O)C(CS)Cc2ccccc2)cc1 (centres undefined)
- Activity [11]: 26 nM

SMILES: COC(=O)N[C@H](C(=O)N(C)[C@@H](CN1CCCC1)c1ccccc1)c1ccccc1
- Activity [13]: 178 nM

SMILES: COc1ccc(NC(=O)NC2N=C(c3ccccc3)c3ccccc3N(C)C2=O)cc1 (centres undefined)
- Activity [12]: 165 nM

SMILES: CC(C)(C)OC(=O)N[C@@H](Cc1ccccc1)C(=O)N1CCN(C(c2ccc(F)cc2)c2ccc(F)cc2)CC1
- Activity [9]: 250 nM

SMILES: O=C(O)C(Cc1ccccc1)NC(=O)[C@H](Cc1ccc2c(c1)oc1ccccc12)NCP(=O)(O)O (some centres undefined)
- Activity [11]: 12 nM

SMILES: O=C(O)Cc1nn(CC(=O)Nc2cccc(F)c2)c(=O)c2ccccc12
- Activity [15]: 22 nM

Other lines, results leading:

- Activity [2]: 325 nM
SMILES: O=C(CCC(NS(=O)(=O)c1ccc2oc3ccccc3c2c1)C(=O)O)NCCc1ccccc1 (centres undefined)

- Activity [4]: 90.9 nM
SMILES: Fc1ccc(CNc2nccc(-c3c(-c4ccc(F)cc4)nc4occn34)n2)cc1

- Activity [5]: 6.8 nM
SMILES: CC(C)(C)OC(=O)NC(C(=O)N1CCC[C@H]1C(=O)NCC1CCC(N)CC1)c1ccccc1 (some centres undefined)

- Activity [2]: 7.31 nM
SMILES: O=C(C[C@H](CCCc1ccc(Cl)cc1)C(=O)N[C@@H](CC1CCCCC1)C(=O)NCCc1ccccc1)NO

- Activity [8]: 3 nM
SMILES: C[C@@]12Cc3cnn(-c4ccc(F)cc4)c3C=C1CC[C@H]1C2=CC[C@H](C(F)(F)F)[C@H]1NCc1ccc(F)cc1

- Activity [9]: 250 nM
SMILES: O=C(Nc1ncc([N+](=O)[O-])s1)C(c1ccccc1)c1ccccc1

- Activity [10]: 54 nM
SMILES: CCc1cc(-c2ccn[nH]2)c(O)cc1OCCCOc1ccc(CC(=O)O)cc1

- Activity [12]: 350 nM
SMILES: Cn1c(C(=O)Nc2ccccc2C(=O)NC(Cc2ccccc2)C(=O)O)cc2ccccc21 (centres undefined)

- Activity [5]: 300 nM
SMILES: CCOC(=O)CN(c1cc(C)cc(OCCc2ccc(C(=N)N)cc2)c1)S(=O)(=O)c1ccccc1Cl

- Activity [14]: 530 nM
SMILES: N[C@@H](C(=O)O)[C@H]1[C@H](CNC(=O)Nc2ccccc2)[C@H]1C(=O)O

- Activity (Renin (Homo sapiens)): 200 nM
SMILES: CC(C)CC[C@@H](O)C(CC1CCCCC1)NC(=O)C(C)NC(=O)C(Cc1ccccc1)NC(=O)OC(C)(C)C (some centres undefined)

- Activity (Renin (Homo sapiens)): 700 nM
SMILES: CC(C)C[C@H](NC(=O)[C@@H](C)NC(=O)[C@@H](Cc1ccccc1)NC(=O)OC(C)(C)C)C(O)CSC(C)C (single isomer, unassigned)

- Activity [16]: 2 nM
SMILES: O=C(Nc1ccccc1)NC1CC(C(=O)O)Nc2cc(Cl)cc(Cl)c21 (centres undefined)

- Activity [10]: 65 nM
SMILES: C=CCN(CC(=O)OCC)C(=O)/C(C)=C/c1ccc(C(=O)Nc2ccc(C(=N)N)cc2)cc1
